Test: xn = mol fraction of the nth substance listed
Details: 101 kPa, Liquid; for mass density: Vibrating tube method; for speed of sound: fixed-path interferometer; for viscosity: Capillary tube (Ostwald / Ubbelohde) method

CCCCOCCO [2-butoxyethan-1-ol] + CCCCCCCCCCO
Details | mass density [kg/m3] | speed of sound [m/s] | viscosity [mPa·s]
293.15 K, x1 = 0.0563 | 832.457 | 1392 | –
293.15 K, x1 = 0.1024 | 834.521 | 1388.2 | –
293.15 K, x1 = 0.1544 | 836.95 | 1383.8 | –
293.15 K, x1 = 0.2049 | 839.424 | 1379.5 | –
293.15 K, x1 = 0.2531 | 841.903 | 1374.8 | –
293.15 K, x1 = 0.3066 | 844.775 | 1369.9 | –
293.15 K, x1 = 0.4028 | 850.363 | 1360.7 | –
293.15 K, x1 = 0.5033 | 856.773 | 1351.5 | –
293.15 K, x1 = 0.6031 | 863.803 | 1343.5 | –
293.15 K, x1 = 0.7009 | 871.448 | 1337.1 | –
293.15 K, x1 = 0.8043 | 880.396 | 1331.2 | –
293.15 K, x1 = 0.8532 | 884.962 | 1328.7 | –
293.15 K, x1 = 0.8996 | 889.528 | 1326.3 | –
293.15 K, x1 = 0.9447 | 894.239 | 1324.5 | –
298.15 K, x1 = 0.0563 | 829 | 1374.9 | 10.7
298.15 K, x1 = 0.1024 | 831.148 | 1371.1 | 9.884
298.15 K, x1 = 0.1544 | 833.643 | 1366.8 | 9.125
298.15 K, x1 = 0.2049 | 836.177 | 1362.6 | 8.425
298.15 K, x1 = 0.2531 | 838.694 | 1358.3 | 7.84
298.15 K, x1 = 0.3066 | 841.628 | 1353.7 | 7.29
298.15 K, x1 = 0.4028 | 847.26 | 1344.9 | 6.351
298.15 K, x1 = 0.5033 | 853.675 | 1336.1 | 5.491
298.15 K, x1 = 0.6031 | 860.637 | 1328.2 | 4.852
298.15 K, x1 = 0.7009 | 868.128 | 1321.1 | 4.26
298.15 K, x1 = 0.8043 | 876.828 | 1314.9 | 3.68
298.15 K, x1 = 0.8532 | 881.288 | 1312.6 | 3.446
298.15 K, x1 = 0.8996 | 885.737 | 1310.2 | 3.261
298.15 K, x1 = 0.9447 | 890.317 | 1308.3 | 3.107
303.15 K, x1 = 0.0563 | 825.535 | 1358.1 | 8.765
303.15 K, x1 = 0.1024 | 827.625 | 1354.4 | 8.155
303.15 K, x1 = 0.1544 | 830.09 | 1350.1 | 7.554
303.15 K, x1 = 0.2049 | 832.6 | 1345.9 | 7.026
303.15 K, x1 = 0.2531 | 835.09 | 1341.7 | 6.577
303.15 K, x1 = 0.3066 | 837.986 | 1337.1 | 6.114
303.15 K, x1 = 0.4028 | 843.566 | 1328.9 | 5.33
303.15 K, x1 = 0.5033 | 849.927 | 1320.8 | 4.683
303.15 K, x1 = 0.6031 | 856.84 | 1313.2 | 4.089
303.15 K, x1 = 0.7009 | 864.279 | 1306.3 | 3.638
303.15 K, x1 = 0.8043 | 872.98 | 1299.7 | 3.162
303.15 K, x1 = 0.8532 | 877.42 | 1296.7 | 2.979
303.15 K, x1 = 0.8996 | 881.86 | 1294.2 | 2.814
303.15 K, x1 = 0.9447 | 886.371 | 1291.7 | 2.671
308.15 K, x1 = 0.0563 | 822.068 | 1341.5 | 7.476
308.15 K, x1 = 0.1024 | 824.141 | 1337.8 | 6.95
308.15 K, x1 = 0.1544 | 826.569 | 1333.9 | 6.449
308.15 K, x1 = 0.2049 | 829.044 | 1330 | 5.981
308.15 K, x1 = 0.2531 | 831.491 | 1326.1 | 5.619
308.15 K, x1 = 0.3066 | 834.361 | 1321.8 | 5.215
308.15 K, x1 = 0.4028 | 839.86 | 1314.1 | 4.618
308.15 K, x1 = 0.5033 | 846.141 | 1306 | 4.088
308.15 K, x1 = 0.6031 | 852.988 | 1298.2 | 3.601
308.15 K, x1 = 0.7009 | 860.384 | 1290.9 | 3.195
308.15 K, x1 = 0.8043 | 869.011 | 1283.7 | 2.808
308.15 K, x1 = 0.8532 | 873.415 | 1280.6 | 2.609
308.15 K, x1 = 0.8996 | 877.785 | 1277.7 | 2.453
308.15 K, x1 = 0.9447 | 882.225 | 1275.3 | 2.295
313.15 K, x1 = 0.0563 | 818.532 | 1324.8 | –
313.15 K, x1 = 0.1024 | 820.551 | 1321.5 | –
313.15 K, x1 = 0.1544 | 822.945 | 1317.8 | –
313.15 K, x1 = 0.2049 | 825.399 | 1314.2 | –
313.15 K, x1 = 0.2531 | 827.825 | 1310.6 | –
313.15 K, x1 = 0.3066 | 830.657 | 1306.6 | –
313.15 K, x1 = 0.4028 | 836.098 | 1299.4 | –
313.15 K, x1 = 0.5033 | 842.307 | 1292 | –
313.15 K, x1 = 0.6031 | 849.078 | 1284.5 | –
313.15 K, x1 = 0.7009 | 856.416 | 1277 | –
313.15 K, x1 = 0.8043 | 864.959 | 1269.4 | –
313.15 K, x1 = 0.8532 | 869.328 | 1266.2 | –
313.15 K, x1 = 0.8996 | 873.661 | 1262.7 | –
313.15 K, x1 = 0.9447 | 878.012 | 1259.7 | –
